The assay relates to Staphyloccus haemolyticus. As to the kind of experiment: Antimicrobial activity: minimum inhibition concentration by two-fold serial dilution in a 96-well plate (optical density, confirmed by agar streak). Conditions: for bacterial growth in the first well of the 96-well plate: 1% L-Lactide solution. It counts as cell-based. The protocol: 1. Formulate a 1% or 10000 ppm and 3% or 30000 ppm solution of the neat L-Lactide active tested by weight and vortex until homogeneous in a 50 mL centrifuge tube. 2. Place solutions in shaking incubator at 200 rpm and 37° C. for 1 hour. 3. Repeat the formulation of the solution and shaking incubation for 4 hour and 24 hour time points. 4. Label 96-well plate to indicate positive and negative controls and the active tested against an odor causing bacteria, Staphyloccus haemolyticus. 5. Using a 96-well plate, pipette 100 uL of Tryptic Soy Broth (TSB) into all of the wells. 6. In the first well, add 100 uL of the active solution or desired solvent for positive and negative controls to achieve a total of 200 uL in the first column of wells. 7. Set the multi-channel pipette to 100 uL and begin mixing the contents in the first column of wells and transfer 100 uL of the mixture into each successive well creating two-fold serial dilutions. 8. Repeat until the 12th column is reached making sure to dispose the 100 uL from the last well leaving 100 uL in all of the wells. 9. In the negative control wells add 100 uL of Phosphate Buffered Saline (PBS). Add 100 uL of bacteria (optical density equals to 0.1) to all other wells. 10. Incubate 96-well plate overnight at 37° C. or at room temperature for 48 hours. 11. Minimum inhibition concentration of the sample is determined by measuring the optical density of the 96 plate.

Take `CC1OC(=O)C(C)OC1=O` [L-Lactide, 3,6-dimethyl-1,4-dioxane-2,5-dione]: the “bacterial growth in the first well of the 96-well plate” value is “some bacterial growth” (1 hour of shaking incubation (200 rpm, 37° C.), first well, 4-fold dilution of the sample) and “complete bacteria kill” (4 hours of incubation, same first well, 4-fold dilution). Moreover, the “bacterial growth in wells 1 and 2 of the 96-well plate” value (3% L-Lactide solution, 1 hour of shaking incubation, dilution factor 4 and 8 fold) is “no bacterial growth”. The “bacterial growth in the third well of the 96-well plate” value (3% L-Lactide solution, 24 hours of shaking incubation, third well, dilution 16 fold) is “bacteria growth is prevented”.

The record behind these values is patent US20160184201A1, “ANTIPERSPIRANT/DEODORANT COMPOSITIONS” (COLGATE-PALMOLIVE COMPANY, priority 2013, published 2016).
